The values below come from patent US20240317706A1, “COMPOUNDS THAT MEDIATE PROTEIN DEGRADATION AND METHODS OF USE THEREOF” (Monte Rosa Therapeutics, Inc., priority 2021, published 2024).

Bounds are passed on as bounds.

One assay has as its target CRBN-DDB1 (Homo sapiens, UniProt Q96SW2). Kind of assay: Compound binding to CRBN by HTRF assay. As to conditions: CRBN-DDB1 2.5 nM, Cy5-Thalidomide 100 nM, 30 min; Ki from geometric mean IC50 by Cheng-Prustoff transformation. The protocol:
Compound activity was monitored in a Homogenous Time-Resolved Fluorescence (HTRF) assay using 1-[5-({2-[2-(2-{[2-(2,6-dioxopiperidin-3-yl)-1,3-dioxo-2,3-dihydro-1H-isoindol-4-yl]oxy}acetamido)ethoxy]ethyl}carbamoyl)pentyl]-3,3-dimethyl-2-[(1E,3E)-5-[(2E)-1,3,3-trimethyl-5-sulfo-2,3-dihydro-1H-indol-2-ylidene]penta-1,3-dien-1-yl]-3H-indol-1-ium-5-sulfonate as a fluorescent probe. Biochemical assays were conducted in Greiner white 384 well HiBase plates (Cat. No 784075-25) in 10 μL total volume. A one pot detection solution of CRBN-DDB1 (2.5 nM), Anti-His Terbium Cryptate Gold (1×, PerkinElmer Cat. #: 61HI2TLB), and Cy5-Thalidomide (100 nM, Tenova Cat.: T52461) was prepared in 20 mM HEPES, 20 mM NaCl, 0.2 mM TCEP, 0.2 mM EDTA, and 0.005% Tween20 was dispensed to each assay plate. Compounds were stored in dry, ambient temperatures at 10 mM. A 10-point, 1:3 dilution series was prepared from 10 mM stock concentrations in Echo-compatible LDV plates. 10 nL of each compound dilution series was dispensed into assays wells using an Echo 650 (Labcyte inc. USA). 10 nL of 10 mM Lenalidomide was transferred into the active-control wells for the assay and 10 nL of DMSO was transferred into the neutral-control wells. The assay was then allowed to incubate for 30 min at ambient temperature after transferring compound. Plate measurements were taken on a Pherastar FSX (BMG Labtech, Germany) using the HTRF Red filter (Ex. 337 nm, em1: 620 nm, em2: 665 nm) (Flashes: 50, Integration time: 60-400 us, Z-height: 10 mm, Ratio-multiplier: 10,000). The HTRF signal was then subsequently normalized to the neutral and active controls. Analysis and IC50 values were derived using KNIME analytics (KNIME Zurich) transformation and fitting within Collaborative Drug Discovery (Collaborative Drug Discovery USA). Ki was derived from the geometric mean of the IC50 values using the Cheng-Prustoff transformation.
On the technique in general: TR-FRET usually uses a lanthanide donor and a delayed reading to cut background.

For another assay, the target named is T1, CDK2 (Homo sapiens, UniProt P24941).
T1 construct: HEK293 clonal lines with CRISPR KI HiBiT tag on CDK2 proteins; host or cells: HEK293 clonal line, CRISPR knock-in HiBiT-CDK2, stably expressing LgBiT
Put plainly: NanoBiT assay (CDK2 degradation). Type of assay: cell-based. As to conditions: HEK293, HEK293 clonal line with CRISPR KI HiBiT tag on CDK2, Endurazine live cell substrate, 24 hours. The protocol:
HEK293 clonal lines with CRISPR KI HiBiT tag on either CDK2 proteins and stably expressing LgBiT protein were obtained from Promega (Madison, WI). Cells were plated at 5000 cells per well using Multiflo (BioTek) in 384-well white solid bottom plates (Corning, 3570BC) in 25 ul volume in DMEM media (DMEM, high glucose, HEPES, no phenol red (ThermoFisher Scientific, 21063029)) containing 10% FBS (Corning, 35-075-CV), 1% Penicillin/Streptomycin ((ThermoFisher Scientific, 15140-122), and 1% Endurazine (Nano-Glo Endurazine Live Cell Substrate (Promega, N2571)). Cells were incubated for 16 hours at 37 C, 5% CO2. 75 nL of a compound at 30 μM were dosed into the plate using an Echo® 650 liquid handler (Labcyte). Cells were incubated at 37° C., 5% CO2 for 24 hours and then signal was read on a Pherastar FSX using “LUM plus” optic module.
Analysis was performed in Scinamic (Scinamic, Cambridge, MA). Luminescence response (R) was calculated by the formula: response=100*(S−N)/(P−N) where S is the signal of the well, N and P the mean negative and positive control values respectively of the same plate. The luminescence response was then fitted in Scinamic using a 3-parameter agonist logistic fit (hillslope=1, EC50>0, top/bottom unconstrained).
Background: The HiBiT peptide binds its large partner to form an active luciferase.

CRBN-DDB1, sequence (Q96SW2 whole entry): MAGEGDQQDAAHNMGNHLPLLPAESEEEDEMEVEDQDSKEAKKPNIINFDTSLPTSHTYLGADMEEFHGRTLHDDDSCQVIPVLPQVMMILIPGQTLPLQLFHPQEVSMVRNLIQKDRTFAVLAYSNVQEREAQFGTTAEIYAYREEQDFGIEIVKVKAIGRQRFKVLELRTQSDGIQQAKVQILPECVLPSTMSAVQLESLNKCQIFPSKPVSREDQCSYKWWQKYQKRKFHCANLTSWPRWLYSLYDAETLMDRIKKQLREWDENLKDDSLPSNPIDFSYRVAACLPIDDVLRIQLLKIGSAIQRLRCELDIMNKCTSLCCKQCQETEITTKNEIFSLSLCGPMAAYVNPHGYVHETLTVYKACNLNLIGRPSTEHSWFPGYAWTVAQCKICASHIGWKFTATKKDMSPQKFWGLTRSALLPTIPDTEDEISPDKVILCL
CRBN-DDB1, sequence (Q16531 whole entry partner): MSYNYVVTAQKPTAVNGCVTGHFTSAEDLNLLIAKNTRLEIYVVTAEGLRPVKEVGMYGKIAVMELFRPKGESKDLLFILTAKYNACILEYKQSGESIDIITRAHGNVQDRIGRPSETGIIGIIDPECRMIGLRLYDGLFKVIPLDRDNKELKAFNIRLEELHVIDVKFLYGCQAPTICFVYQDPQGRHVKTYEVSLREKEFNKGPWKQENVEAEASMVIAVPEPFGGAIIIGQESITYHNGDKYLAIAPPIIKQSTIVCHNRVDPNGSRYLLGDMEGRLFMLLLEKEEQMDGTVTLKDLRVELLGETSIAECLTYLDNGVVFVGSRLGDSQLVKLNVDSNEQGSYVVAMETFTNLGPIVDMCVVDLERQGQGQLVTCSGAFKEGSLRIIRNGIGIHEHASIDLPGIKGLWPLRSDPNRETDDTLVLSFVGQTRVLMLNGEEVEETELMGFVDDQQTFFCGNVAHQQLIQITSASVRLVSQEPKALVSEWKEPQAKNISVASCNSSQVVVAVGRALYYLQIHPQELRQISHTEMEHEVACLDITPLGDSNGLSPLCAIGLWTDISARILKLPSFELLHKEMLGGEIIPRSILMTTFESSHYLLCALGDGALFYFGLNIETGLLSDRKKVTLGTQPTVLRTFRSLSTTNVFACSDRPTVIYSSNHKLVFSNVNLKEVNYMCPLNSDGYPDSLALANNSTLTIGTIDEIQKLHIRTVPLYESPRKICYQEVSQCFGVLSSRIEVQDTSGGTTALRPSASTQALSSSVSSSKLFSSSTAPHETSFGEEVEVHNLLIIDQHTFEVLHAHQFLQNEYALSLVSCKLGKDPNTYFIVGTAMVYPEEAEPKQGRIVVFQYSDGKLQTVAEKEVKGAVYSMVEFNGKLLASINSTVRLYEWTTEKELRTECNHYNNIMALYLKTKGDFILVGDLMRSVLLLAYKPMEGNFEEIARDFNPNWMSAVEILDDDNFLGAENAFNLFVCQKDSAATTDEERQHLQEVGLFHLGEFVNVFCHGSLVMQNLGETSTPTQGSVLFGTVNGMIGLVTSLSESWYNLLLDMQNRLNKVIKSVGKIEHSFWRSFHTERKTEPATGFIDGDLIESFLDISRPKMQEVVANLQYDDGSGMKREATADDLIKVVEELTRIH

`CC(C)[C@@H]1C[C@H]1COC(=O)NCc1ccc2c(c1)C(=O)N(C1CCC(=O)NC1=O)C2` (stereo partly drawn) [Compound 116, ((1R,2S)-2-isopropylcyclopropyl)methyl ((2-(2,6-dioxopiperidin-3-yl)-3-oxoisoindolin-5-yl)methyl)carbamate] gave a Ki at CRBN-DDB1 of 100 to 1000 nM. The Dmax at CDK2 fell in the range of 10 to 50%.

At CRBN-DDB1, `O=C1CCC(N2Cc3ccc(CNC(=O)OC[C@@H]4C[C@H]4c4ccccc4)cc3C2=O)C(=O)N1` (stereo partly drawn) [Compound 132, ((1R,2R)-2-phenylcyclopropyl)methyl ((2-(2,6-dioxopiperidin-3-yl)-3-oxoisoindolin-5-yl)methyl)carbamate] registered an inhibitory constant (Ki) of 100 to 1000 nM. The molecule further registered a Dmax on CDK2 of 10 to 50%.

For the molecule `O=C1CCC(N2Cc3c(Br)cc(CNc4nnc(C5CC6(CCC6)C5)o4)c(O)c3C2=O)C(=O)N1` (stereo not drawn) [Compound 137, 3-(4-bromo-7-hydroxy-1-oxo-6-(((5-(spiro[3.3]heptan-2-yl)-1,3,4-oxadiazol-2-yl)amino)methyl)isoindolin-2-yl)piperidine-2,6-dione], the inhibition constant Ki on CRBN-DDB1 is no more than 100 nM. The molecule also registered a Dmax on CDK2 of 50 to 80%.

`CC1(C)[C@H]2CC=C(CCOC(=O)NCc3ccc4c(c3)C(=O)N(C3CCC(=O)NC3=O)C4)[C@@H]1C2` (stereo partly drawn) [Compound 129, 2-((1R,5S)-6,6-dimethylbicyclo[3.1.1]hept-2-en-2-yl)ethyl ((2-(2,6-dioxopiperidin-3-yl)-3-oxoisoindolin-5-yl)methyl)carbamate] registered a Ki at CRBN-DDB1 of 100 to 1000 nM. Also, the maximal degradation (Dmax) at CDK2 was in the range of 10 to 50%.

For the molecule `O=C1CCC(N2Cc3ccc(CNC(=O)OCC4(C5CC5)CC4)cc3C2=O)C(=O)N1` (stereo not drawn) [Compound 77, {[1,1′-bi(cyclopropane)]-1-yl}methyl N-{[2-(2,6-dioxopiperidin-3-yl)-3-oxo-2,3-dihydro-1H-isoindol-5-yl]methyl}carbamate], the Ki on CRBN-DDB1 was in the range of 100 to 1000 nM. The molecule also returned a Dmax at CDK2 of 10 to 50%.

Turning to `CC(C)(C)C12CC(COC(=O)NCc3ccc4c(c3)C(=O)N(C3CCC(=O)NC3=O)C4)(C1)C2` (stereo not drawn) [Compound 131, (3-(tert-butyl)bicyclo[1.1.1]pentan-1-yl)methyl((2-(2,6-dioxopiperidin-3-yl)-3-oxoisoindolin-5-yl)methyl)carbamate], the Ki on CRBN-DDB1 was in the range of 100 to 1000 nM. On CDK2, this molecule came in with a Dmax of 10 to 50%.

Molecule `O=C1CCC(N2Cc3c(cc(CNc4nnc(C5CC6(CCC6)C5)o4)cc3C(F)F)C2=O)C(=O)N1` (stereo not drawn) [Compound 143, 3-(4-(difluoromethyl)-1-oxo-6-(((5-(spiro[3.3]heptan-2-yl)-1,3,4-oxadiazol-2-yl)amino)methyl)isoindolin-2-yl)piperidine-2,6-dione] came in with a Ki at CRBN-DDB1 of no more than 100 nM. The Dmax on CDK2 is 10 to 50%.

As to `O=C1CCC(N2Cc3ccc(CNC(=O)OC(Cc4ccccc4)C4CC5(CCC5)C4)cc3C2=O)C(=O)N1` (stereo not drawn) [Compound 109, 2-phenyl-1-(spiro[3.3]heptan-2-yl)ethyl ((2-(2,6-dioxopiperidin-3-yl)-3-oxoisoindolin-5-yl)methyl)carbamate], on CRBN-DDB1, the Ki fell in the range of 100 to 1000 nM. The same molecule returned a Dmax on CDK2 of 10 to 50%.

In turn, `O=C1CCC(N2Cc3ccc(CNC(=O)OCC4CCS(=O)(=O)C4)cc3C2=O)C(=O)N1` (stereo not drawn) [Compound 51, (1,1-dioxo-1lambda6-thiolan-3-yl)methyl N-{[2-(2,6-dioxopiperidin-3-yl)-3-oxo-2,3-dihydro-1H-isoindol-5-yl]methyl}carbamate] had an inhibition constant (Ki) at CRBN-DDB1 of no more than 100 nM. The same molecule gave a Dmax at CDK2 of no more than 10%.

In turn, `Cc1cc(CNC(=O)OCC2CC3(CCC3)C2)cc2c1CN(C1CCC(=O)NC1=O)C2=O` (stereo not drawn) [Compound 105, spiro[3.3]heptan-2-ylmethyl ((2-(2,6-dioxopiperidin-3-yl)-7-methyl-3-oxoisoindolin-5-yl)methyl)carbamate] had a Ki on CRBN-DDB1 of no more than 100 nM. On CDK2, this molecule registered a Dmax of 50 to 80%.

Consider `N#Cc1cc(CNC(=O)OCC2CC3(CCC3)C2)cc2c1CN(C1CCC(=O)NC1=O)C2=O` (stereo not drawn) [Compound 106, spiro[3.3]heptan-2-ylmethyl ((7-cyano-2-(2,6-dioxopiperidin-3-yl)-3-oxoisoindolin-5-yl)methyl)carbamate], for which the Ki on CRBN-DDB1 fell in the range of 100 to 1000 nM. The molecule further displayed a Dmax at CDK2 of 50 to 80%.

Turning to `O=C1CCC(N2Cc3ccc(CNC(=O)OC4CCC5(CCC5)CC4)cc3C2=O)C(=O)N1` (stereo not drawn) [Compound 133, spiro[3.5]nonan-7-yl ((2-(2,6-dioxopiperidin-3-yl)-3-oxoisoindolin-5-yl)methyl)carbamate], on CRBN-DDB1, the Ki was 100 to 1000 nM. On CDK2, the Dmax is 10 to 50%.

Consider `O=C1CCC(N2Cc3ccc(CNc4nnc(C5CC6(CCC6)C5)o4)cc3C2=O)C(=O)N1` (stereo not drawn) [Compound 136, 3-(1-oxo-6-(((5-(spiro[3.3]heptan-2-yl)-1,3,4-oxadiazol-2-yl)amino)methyl)isoindolin-2-yl)piperidine-2,6-dione], for which the Ki at CRBN-DDB1 lay within 100 to 1000 nM. The Dmax at CDK2 was 50 to 80%.

At CRBN-DDB1, `O=C1CCC(N2Cc3ccc(CNC(=O)OC4CCC5(CC4)CC5)cc3C2=O)C(=O)N1` (stereo not drawn) [Compound 130, spiro[2.5]octan-6-yl ((2-(2,6-dioxopiperidin-3-yl)-3-oxoisoindolin-5-yl)methyl)carbamate] displayed a Ki of 100 to 1000 nM. The Dmax at CDK2 lay within 10 to 50%.

In turn, `CC12COC(COC(=O)NCc3ccc4c(c3)C(=O)N(C3CCC(=O)NC3=O)C4)(C1)C2` (stereo not drawn) [Compound 72, {4-methyl-2-oxabicyclo[2.1.1]hexan-1-yl}methyl N-{[2-(2,6-dioxopiperidin-3-yl)-3-oxo-2,3-dihydro-1H-isoindol-5-yl]methyl}carbamate] showed a Ki on CRBN-DDB1 of 100 to 1000 nM. In addition, the Dmax on CDK2 is no more than 10%.

On CRBN-DDB1, `O=C1CCC(N2Cc3ccc(C4(NC(=O)OCC5CC6(CCC6)C5)CC4)cc3C2=O)C(=O)N1` (stereo not drawn) [Compound 118, spiro[3.3]heptan-2-ylmethyl (1-(2-(2,6-dioxopiperidin-3-yl)-3-oxoisoindolin-5-yl)cyclopropyl)carbamate] had an inhibition constant (Ki) of 100 to 1000 nM. At CDK2, this molecule showed a Dmax of 50 to 80%.

As for `O=C1CCC(N2Cc3ccc(CNC(=O)OC(c4ccccc4)C4CC5(CCC5)C4)cc3C2=O)C(=O)N1` (stereo not drawn) [Compound 107, phenyl(spiro[3.3]heptan-2-yl)methyl ((2-(2,6-dioxopiperidin-3-yl)-3-oxoisoindolin-5-yl)methyl)carbamate], on CRBN-DDB1, the Ki lay in the range of 100 to 1000 nM. The molecule also gave a Dmax at CDK2 of 50 to 80%.

Regarding `O=C1CCC(N2Cc3ccc(CNC(=O)OC(C4CC4)C4CC5(CCC5)C4)cc3C2=O)C(=O)N1` (stereo not drawn) [Compound 108, cyclopropyl(spiro[3.3]heptan-2-yl)methyl ((2-(2,6-dioxopiperidin-3-yl)-3-oxoisoindolin-5-yl)methyl)carbamate], the Ki at CRBN-DDB1 was in the range of 100 to 1000 nM. In addition, the Dmax at CDK2 lay within 10 to 50%.

Take `CC(OC(=O)NCc1ccc2c(c1)C(=O)N(C1CCC(=O)NC1=O)C2)C1CC2(CCC2)C1` (stereo not drawn) [Compound 113, 1-(spiro[3.3]heptan-2-yl)ethyl ((2-(2,6-dioxopiperidin-3-yl)-3-oxoisoindolin-5-yl)methyl)carbamate]: the Ki on CRBN-DDB1 fell in the range of 100 to 1000 nM. This molecule also displayed a Dmax at CDK2 of 10 to 50%.

`C[C@H]1C[C@@H](COC(=O)NCc2ccc3c(c2)C(=O)N(C2CCC(=O)NC2=O)C3)C1` (stereo partly drawn) [Compound 120, ((1s,3s)-3-methylcyclobutyl)methyl ((2-(2,6-dioxopiperidin-3-yl)-3-oxoisoindolin-5-yl)methyl)carbamate] displayed a Ki at CRBN-DDB1 of 100 to 1000 nM. The Dmax on CDK2 lay within 10 to 50%.

At CRBN-DDB1, `O=C1CCC(N2Cc3ccc(CNc4nnc(C5CC6(CCC6)C5)o4)c(O)c3C2=O)C(=O)N1` (stereo not drawn) [Compound 135, 3-(7-hydroxy-1-oxo-6-(((5-(spiro[3.3]heptan-2-yl)-1,3,4-oxadiazol-2-yl)amino)methyl)isoindolin-2-yl)piperidine-2,6-dione] gave a Ki of 100 to 1000 nM. The Dmax at CDK2 is 50 to 80%.

Usually Ki stands for the equilibrium dissociation constant of an inhibitor or competing ligand from its target. A higher Ki goes with a looser hold on the target. The term Dmax denotes the greatest extent of degradation seen. A lower Dmax goes with shallow degradation.
